Source: US20160199364A1, “SEIZURE TREATMENT COMPOSITIONS AND METHODS” (Creighton University, priority 2015, published 2016)

Key:
[1] = test system: spontaneous recurrent seizures in epileptic Kv1.1 knockout (KO) mice; assay: Spontaneous recurrent seizures by 24 hr video-EEG (seizure incidence, seizure burden index); assay type: in vivo, mouse
Method: (§1) Dietary and pharmacological treatments. […] For dietary experiments involving Kv1.1WT and Kv1.1KO mice, drinking water contained either 0.0323% DMSO vehicle or GW9662 ([…]) to obtain an average dosage of 1.062±0.038 mg/kg/day (n=18). There was no difference in the average daily water consumption or resulting GW9662 dosage between experimental groups (see FIG. 2H). […] Three hours after the last pioglitazone injection, mice were euthanized and brains processed for western blot, electrophysiology, or mitochondria experiments.
Intracranial electroencephalography electrode implantation and seizure analysis. On P27, mice underwent surgical implantation of electrodes. Mice were maintained under isoflurane anesthesia and normothermic conditions. One ground (1.5 mm anterior lamba, 1.5 mm lateral) and two subdural (1 mm posterior Bregma, 1.5 mm bilateral) intracranial cortical electroencephalographic (iEEG) electrodes were implanted, secured, and attached to a headmount. […] EEG recordings were acquired with a 250 Hz sampling rate and band-pass filtered between 0.5 and 40 Hz. During seizure monitoring, mice were single-housed in hexagon cages. EEG recordings were imported into Spike2 v6-7 software (Cambridge Electronic Design, Cambridge, England) for initial seizure identification using time-frequency analysis. […] Incidence and severity of each seizure was scored for the first 15 minutes of each hour during the time period of highest seizure occurrence for Kv1.1KO mice (00:00-08:00). Seizure severity was scored using a modified Racine scale: 0—normal; 1—myoclonic jerk or “pop;” 2—side-to-side head movement; 3—forelimb/hindlimb clonus, tail extension, a single rearing event; 4—continuous rearing and falling; 5—severe tonic-clonic seizures. To weigh the incidence and severity of seizures, seizure burden index (SBI) scores were calculated using the equation: SBI=[Σ(σiγi)]/ε, where σ indicates the severity; i indicates each stage of seizure (1-5); γ is the incidence; and ε indicates the total number of epochs scored.

[2] = Body weight; assay type: in vivo, mouse; conditions: pioglitazone 10 mg/kg/day i.p., five days; Kv1.1WT or Kv1.1KO mice
[3] = test system: hippocampal mossy fiber-CA3 synapse and CA3 network; assay: Acute hippocampal slice multielectrode array recordings after in vivo treatment; parameters: species or system mouse; conditions: Kv1.1KO mice treated in vivo (pioglitazone 10 mg/kg/day i.p. or KD), hippocampal slices
Method: as §1
Acute hippocampal slice preparation and multielectrode array recordings. […] Spontaneous and evoked extracellular potentials were recorded with Mobius v2 software (Witwerx Inc., Tustin, Calif., USA) and acquired at a 20 kHz sampling rate with a bandwidth of 0.1 Hz-10 kHz. Post-synaptic field potentials and short-term plasticity of the mossy fiber (MF)-CA3 synapse were obtained by successive paired stimulations (50 ms inter-stimulus interval, 50% maximal intensity) of Dentate granule cell mossy fibers located in the hilar region and recorded in CA3 stratum lucidum. Paired pulse facilitation was calculated by dividing the slope (10-90%) of stimulation 2 by the slope of stimulation 1 and presented as the percent above stimulation 1. […]

[4] = test system: mitochondrial respiratory complex I (MRCI); assay: Oxygen polarography of isolated cortical mitochondria after in vivo treatment; parameters: species or system mouse; conditions: Kv1.1KO mice treated in vivo (pioglitazone 10 mg/kg/day i.p. or KD)
Method: as §1
Mitochondrial isolation and oxytherm polarography. Mice were anesthetized with isoflurane and cortical tissue was quickly micro-dissected on ice. Tissue was homogenized in isolation buffer (5×V/V in mM: 215 mannitol, 75 sucrose, 1 EGTA 20 HEPES and 0.1% BSA, pH 7.2 adjusted with KOH) and mitochondria were isolated using differential centrifugation. Isolated mitochondria were resuspended in isolation buffer without EGTA. Protein concentrations were determined with Bradford assay. […] Oxygen polarography was measured using a standard Clark-type electrode (Hanstech Instruments, Ltd., Norfolk, England). […] Only samples with a respiratory control ratio greater than 4 were analyzed. Unbiased assessment of the rate of oxygen consumption was determined using computer-generated line of best-fit algorithm and nmol of oxygen mg^−1 min^−1 was calculated.

Structure (SMILES) | KD anti-seizure efficacy ([1]; GW9662 ~1 mg/kg/day co-administered throughout KD treatment, Kv1.1KO mice) | Kv1.1KO seizures (worsening) ([1]; GW9662 ~1 mg/kg/day in drinking water, Kv1.1KO mice) | induction of spontaneous seizures in WT mice ([1]; GW9662 ~1 mg/kg/day in drinking water, WT mice) | body weight [2] | attenuation of HFO (high frequency oscillation) incidence ([3]; CA3 network) | increase of mossy fiber paired pulse facilitation [3] | improvement of mitochondrial respiration (MRCI State III) [4]
O=C(Nc1ccccc1)c1cc([N+](=O)[O-])ccc1Cl [GW9662] | prevented | did not worsen | did not | – | – | – | –
CCc1ccc(CCOc2ccc(CC3SC(=O)NC3=O)cc2)nc1 (stereo not shown) [pioglitazone] | – | – | – | did not change | ~60% | ~45% | ~80%
